Laboratory results: patent US20210381051A1, “DNA METHYLATION BIOMARKER OF AGING FOR HUMAN EX VIVO AND IN VIVO STUDIES” (The Regents of the University of California, priority 2018, published 2021)

How the values were obtained:
[1] = test system: primary human keratinocytes; test: Keratinocyte proliferation rate and proliferative capacity (population doublings); assay type: cell-based; settings: rapamycin 25 nM, Y-27632 1 μM
Description: The availability of an epigenetic clock, such as the skin & blood clock, which is applicable to cultured cells, allows epigenetic ageing to be studied beyond the purely descriptive nature afforded by epidemiological analyses alone. Towards this end, we have established in vitro epigenetic ageing systems using primary human cells. One of this is based on primary keratinocytes that are derived from healthy human skins. […] The opposing effects of these compounds on keratinocyte proliferation present us with the opportunity to test whether cellular proliferation rate impacts epigenetic ageing while carrying out our primary aim of interrogating the effects of rapamycin on epigenetic ageing.
(§1) Primary keratinocytes were isolated from human neonatal foreskins from three donors (Donor A, B and C) and were put in culture with standard media or media supplemented with rapamycin, Y-27632 or a cocktail of both of these compounds (methods). The cells were passaged continually and population doublings at each passage recorded. […] DNA methylation profiles from a selection of passages of these cells were obtained and analysed with the skin & blood clock. […]
(§2) Primary human neonatal fibroblasts were isolated from circumcised foreskins. […] Upon confluence, cells were trypsinised, counted and 100,000 were seeded into fresh fibronectin/collagen-coated plates. […]

[2] = test system: primary human keratinocytes from neonatal foreskins; test: Ex vivo human cell aging assay: DNAm age of cultured keratinocytes by the skin & blood clock; assay type: cell-based
Description: (§3) FIG. 6. Ex vivo study of compounds that may accelerate or decelerate epigenetic aging. A) Effect of Y-27632 and rapamycin treatment on neonatal keratinocytes measured by the skin & blood clock. B) Effect of oestrogen on neonatal dermal fibroblasts.
(§4) By its ability to quantitatively track aging of human cells ex vivo, the skin & blood clock lends itself to be used in the development of an ex vivo human cell aging assay that can be used for testing and screening compounds with anti-aging or pro-aging effects.
as §1, with “recorded. In time all cells, regardless of donor or treatment underwent replicative senescence, where they ceased to increase their numbers after at least 2 weeks in culture with regular replenishment of media.” for “recorded.”
as §2

[3] = test system: HGPS patients; settings: after 2.2 years of follow-up, 27% death in the matched untreated group; cited from earlier work
[4] = test system: progerin accumulation in HGPS cells; settings: in vitro studies [41, 42]; cited from earlier work
[5] = test system: neonatal dermal fibroblasts; test: Ex vivo epigenetic aging of fibroblasts by the skin & blood clock; assay type: cell-based, human; settings: suggestive evidence
Description: as §3, §4

Compound: C[C@@H](N)[C@H]1CC[C@H](C(=O)Nc2ccncc2)CC1 [Y-27632]
- cellular proliferation rate (population doublings per unit of time) [1]: increases it
- epigenetic aging (skin & blood clock), FIG. 6A ([2]; Example 1, dividing / neonatal keratinocytes, suggestive evidence): appears to increase epigenetic aging
- epigenetic ageing (skin & blood clock) ([2]; Example 2, neonatal foreskin keratinocytes of three donors, CnT-07 medium, rapamycin 25 nM, Y-27632 1 μM, present for the entire duration): did not impose any appreciable effect

Compound: NC(=O)N1CCC(CC(=O)N2CCC([C@H]3c4ncc(Br)cc4CCc4cc(Cl)cc(Br)c43)CC2)CC1 [lonafarnib]
- death in the treated group [3]: 6.3%

Compound: CN(C)C(=N)N=C(N)N [metformin]
- progerin accumulation and cellular HGPS phenotypes [4]: reduction of progerin accumulation

Compound: estrogen
- epigenetic aging (skin & blood clock), FIG. 6B [5]: associated with slower epigenetic aging
